Data on ten molecules can be found in ChEMBL document CHEMBL1201862, “PubChem BioAssay data set” (2004).

Each structure is given as a SMILES string.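 Where inhibition never reached the appropriate level, the endpoint shown equals the highest concentration tested. Otherwise, values were interpolated linearly from a five-concentration, 48-hour dose response in 96-well plates. GI50 is the concentration that inhibits growth by half.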 Activity calls are given as the source filed them. No stated cut-off is given here; in the data, active = GI50 up to about 1.1 µM and inactive = higher.

Test systems include BT-549; COLO 205; DU-145; EKVX; HT-29; KM12; MCF7; MDA-N; NCI-H226; OVCAR-3; RXF 393; SF-268; SF-295; SF-539; SK-MEL-2; SK-MEL-5; SK-OV-3; SR; SW-620; U-251.
What all share (test): NCI anticancer screen, dose series, 48 h

For `COc1cc(/C=C2/SC(c3ccccc3)N(c3cccc(Cl)c3)C2=O)cc(OC)c1OC` (stereo not given), the GI50 is 24.1 µM (inactive) in the experiment with BT-549; 56.1 µM (inactive) in the experiment on COLO 205; 39.1 µM (inactive) with DU-145; 41.3 µM (inactive) in the experiment on EKVX; 25.6 µM (inactive) with HT-29; 32.4 µM (inactive) in the experiment on KM12. The GI50 was 24 µM (inactive) with MCF7; 16.3 µM (inactive) with MDA-N; 42.7 µM (inactive) with NCI-H226; 40.1 µM (inactive) in the experiment with OVCAR-3; 15.9 µM (inactive) with RXF 393; 21 µM (inactive) in the experiment with SF-268. Besides, the GI50 in the experiment on SF-295 was 8.22 µM (inactive); with SF-539, 22.5 µM (inactive); in the experiment on SK-MEL-2 it was 59.3 µM (inactive); in the experiment on SK-MEL-5, 29.5 µM (inactive); in the experiment on SK-OV-3, 20.9 µM (inactive); in the experiment on SR, 10.8 µM (inactive). The GI50 is 28.6 µM (inactive) with SW-620 and 27.6 µM (inactive) with U-251.

Regarding `CC(=O)NC1C(OCc2ccccc2)OC(CO)C(O)C1OCC(=O)NC(C)C(=O)NC(CCC(=O)NCCCCCNc1c2ccccc2nc2cccc([N+](=O)[O-])c12)C(N)=O` (stereo not given), the GI50 in the experiment on BT-549 is < 0.0001 µM (active); in the experiment on COLO 205, < 0.0001 µM (active); in the experiment on DU-145, < 0.0001 µM (active); in the experiment on EKVX it was 0.00197 µM (active); with HT-29, < 0.0001 µM (active); in the experiment with KM12 it was < 0.0001 µM (active). For the same molecule, the GI50 in the experiment on MCF7 was < 0.0001 µM (active); in the experiment with MDA-N, < 0.01 µM (active); in the experiment on NCI-H226 it was 0.000202 µM (active); with OVCAR-3, < 0.01 µM (active); with RXF 393 it was < 0.01 µM (active); in the experiment on SF-268 it was < 0.0001 µM (active). The GI50 with SF-295 was < 0.0001 µM (active); in the experiment with SF-539, < 0.0001 µM (active); in the experiment with SK-MEL-2 it was < 0.0001 µM (active); in the experiment with SK-MEL-5, < 0.0001 µM (active); in the experiment with SR it was 0.00217 µM (active); in the experiment with SW-620, < 0.0001 µM (active). In addition, the GI50 in the experiment on U-251 was < 0.0001 µM (active).

On to `NC1(c2cc3ccccc3s2)CCCC1`, for which the GI50 with BT-549 was > 100 µM (inactive); with COLO 205, 22.9 µM (inactive); with DU-145, > 100 µM (inactive); in the experiment on EKVX, > 100 µM (inactive); with HT-29 it was 32.9 µM (inactive); with KM12, 43.9 µM (inactive). Besides, the GI50 in the experiment on MCF7 was 57.8 µM (inactive); in the experiment with MDA-N, 48.9 µM (inactive); with NCI-H226, > 100 µM (inactive); with OVCAR-3, > 100 µM (inactive); with RXF 393 it was 43.8 µM (inactive); in the experiment on SF-268, > 100 µM (inactive). Moreover, the GI50 in the experiment with SF-295 was 71.3 µM (inactive); with SF-539 it was 18.5 µM (inactive); with SK-MEL-2, 58.9 µM (inactive); in the experiment with SK-MEL-5, 24.1 µM (inactive); with SK-OV-3, > 100 µM (inactive); with SR, 21.1 µM (inactive). The values for the GI50 with SW-620 and in the experiment with U-251 were 49.2 µM (inactive) and 48 µM (inactive), respectively.

Take `O=C1C(Cl)C(c2cc3cc(Br)ccc3nc2Cl)N1c1c(Cl)cccc1Cl` (stereo not given): the GI50 in the experiment on BT-549 is 10.2 µM (inactive); in the experiment on COLO 205, > 25 µM (inactive); in the experiment on DU-145, > 25 µM (inactive); in the experiment with EKVX, 6.32 µM (inactive); in the experiment with HT-29, > 25 µM (inactive); with KM12 it was > 25 µM (inactive). The GI50 was 6.76 µM (inactive) in the experiment with MCF7; 9.68 µM (inactive) in the experiment on MDA-N; 15.8 µM (inactive) in the experiment with NCI-H226; 18.2 µM (inactive) in the experiment with OVCAR-3; 9.91 µM (inactive) in the experiment with RXF 393; 11.7 µM (inactive) in the experiment on SF-268. For the same molecule, the GI50 in the experiment with SF-295 was > 25 µM (inactive); with SF-539, 5.27 µM (inactive); in the experiment on SK-MEL-2 it was > 25 µM (inactive); in the experiment on SK-MEL-5, 12.5 µM (inactive); in the experiment on SK-OV-3, > 25 µM (inactive); in the experiment with SR it was 4.78 µM (inactive). Moreover, the GI50 in the experiment on SW-620 is 11.6 µM (inactive).

`N#Cc1c(C#N)c(SSc2c(C#N)c(C#N)c(N)n2-c2ccc(F)cc2)n(-c2ccc(F)cc2)c1N`: the GI50 in the experiment on BT-549 was 2.88 µM (inactive); with COLO 205, 1.95 µM (inactive); with DU-145 it was 16 µM (inactive); with EKVX, 2.2 µM (inactive); in the experiment with HT-29, 20.5 µM (inactive); in the experiment with KM12, 23.2 µM (inactive). Besides, the GI50 in the experiment on MCF7 was 2.9 µM (inactive); in the experiment on MDA-N, 3.67 µM (inactive); in the experiment on NCI-H226, 20.8 µM (inactive); in the experiment with OVCAR-3, 2.66 µM (inactive); in the experiment on RXF 393, 3.01 µM (inactive); in the experiment on SF-268, 17.5 µM (inactive). Moreover, the GI50 was 17.9 µM (inactive) in the experiment on SF-295; 19.2 µM (inactive) in the experiment with SF-539; 22.4 µM (inactive) in the experiment on SK-MEL-2; 17.4 µM (inactive) with SK-MEL-5; 17.5 µM (inactive) in the experiment on SK-OV-3; 0.59 µM (active) in the experiment with SR. The values for the GI50 in the experiment with SW-620 and in the experiment with U-251 were 2.25 µM (inactive) and 20.2 µM (inactive), respectively.

With `CC1(C)CC(C2=NCCO2)CC(C)(C)N1`, the GI50 in the experiment with BT-549 was > 100 µM (inactive); in the experiment with COLO 205, > 100 µM (inactive); in the experiment with DU-145 it was > 100 µM (inactive); in the experiment with EKVX, > 100 µM (inactive); in the experiment on HT-29 it was > 100 µM (inactive); with MCF7, 27.7 µM (inactive). The GI50 in the experiment with MDA-N, in the experiment with NCI-H226, in the experiment on OVCAR-3, with RXF 393, with SF-268 and with SF-295 was > 100 µM (inactive) each time. The GI50 in the experiment on SF-539, in the experiment with SK-MEL-2, with SK-MEL-5, in the experiment with SK-OV-3, in the experiment on SR and with U-251 was > 100 µM (inactive) throughout.

For the molecule `COc1ccc([C@H]2CC(=O)C[C@H](c3ccc(OC)cc3OC)C23C(=O)c2ccccc2C3=O)c(OC)c1`, the GI50 in the experiment with BT-549, in the experiment with COLO 205, with DU-145, in the experiment with EKVX, with HT-29 and with KM12 was > 100 µM (inactive) in each case. For the same molecule, the GI50 with MCF7, in the experiment with MDA-N, in the experiment with NCI-H226, in the experiment with OVCAR-3, in the experiment on RXF 393 and with SF-268 was > 100 µM (inactive) each time. Moreover, the GI50 with SF-295 is > 100 µM (inactive); with SF-539 it was > 100 µM (inactive); in the experiment on SK-MEL-2, > 100 µM (inactive); in the experiment with SK-MEL-5 it was 68.1 µM (inactive); in the experiment on SK-OV-3, > 100 µM (inactive); in the experiment on SR, > 100 µM (inactive). Moreover, the GI50 with SW-620 and in the experiment on U-251 was > 100 µM (inactive) in each case.

As to `Cc1ccc(-n2c(=O)c3nn4c(=O)n(-c5ccc(C)cc5)c(=O)c4nn3c2=O)cc1`, the GI50 in the experiment on BT-549, in the experiment on COLO 205, with DU-145, in the experiment with EKVX, in the experiment on HT-29 and in the experiment with KM12 was > 100 µM (inactive) in each case. Further, the GI50 with MCF7, in the experiment with MDA-N, with NCI-H226, in the experiment with OVCAR-3, with RXF 393 and in the experiment on SF-268 was > 100 µM (inactive) in each case. In addition, the GI50 in the experiment with SF-295, in the experiment on SF-539, in the experiment on SK-MEL-2, in the experiment with SK-MEL-5, in the experiment with SK-OV-3 and in the experiment with SR was > 100 µM (inactive) in each case. The GI50 in the experiment on SW-620 and with U-251 was > 100 µM (inactive) throughout.

With `Cc1cc(C)c2c(n1)S(=O)(=O)N(CCCN1CCN(c3cccc(C(F)(F)F)c3)CC1)C(C(=O)c1ccc(Cl)cc1)=C2O`, the GI50 was 6.1 µM (inactive) in the experiment with BT-549; 1.84 µM (inactive) in the experiment on COLO 205; 4.67 µM (inactive) in the experiment on DU-145; 3.03 µM (inactive) with EKVX; 4.03 µM (inactive) in the experiment with HT-29; 3.58 µM (inactive) in the experiment on KM12. The GI50 in the experiment with MCF7 is 3.26 µM (inactive); in the experiment with MDA-N, 3.15 µM (inactive); in the experiment on NCI-H226 it was 2.45 µM (inactive); in the experiment with OVCAR-3, 3.57 µM (inactive); in the experiment with RXF 393 it was 4.34 µM (inactive); in the experiment on SF-268, 3.69 µM (inactive). Further, the GI50 in the experiment with SF-295 is 3.29 µM (inactive); with SF-539, 3.84 µM (inactive); in the experiment on SK-MEL-2, 3.91 µM (inactive); in the experiment on SK-MEL-5 it was 2.22 µM (inactive); with SK-OV-3, 5.81 µM (inactive); in the experiment with SR, 0.507 µM (active). Besides, the GI50 was 3.69 µM (inactive) in the experiment on SW-620 and 2.65 µM (inactive) in the experiment on U-251.

`O=S(=O)(O)CCSSCCS(=O)(=O)O`: the GI50 in the experiment with BT-549, in the experiment on COLO 205, with DU-145, in the experiment with EKVX, in the experiment on HT-29 and in the experiment with KM12 was > 1000 µM (inactive) each time. Moreover, the GI50 in the experiment on MCF7, with MDA-N, in the experiment with NCI-H226, with OVCAR-3, in the experiment on RXF 393 and in the experiment on SF-268 was > 1000 µM (inactive) throughout. Also, the GI50 in the experiment with SF-295, with SF-539, in the experiment with SK-MEL-2, in the experiment on SK-OV-3, in the experiment on SR and in the experiment on SW-620 was > 1000 µM (inactive) each time. Besides, in the experiment with U-251, the GI50 is > 1000 µM (inactive).
